Source: patent publication US11840521B2, “Modulators of Mas-related G-protein receptor X4 and related products and methods” (Escient Pharmaceuticals, Inc., priority 2019, dated 2023)
Read-outs that look alike come from different tables or passages of the source.

Target: MRGPRX4 (Homo sapiens, UniProt Q96LA9)
Experiment: MRGPR X4 antagonist activity, IP-One Gq HTRF assay in stably transfected HEK cells (versus agonist bilirubin, deoxycholic acid, conjugated bilirubin, urobilin, obeticholic acid or BAR502)
Format: cell-based
Set-up: expressed in transfected cells; host or cells: HEK cells, stably transfected
Method: HEK cells stably transfected to express human MRGPR X4 were maintained in an incubator at 37° C. with 5% CO2 and grown in DMEM media with 10% fetal bovine serum (FBS) and 1% each of sodium pyruvate, Glutamax, penicillin/streptomycin, and Geneticin. HEK cells stably transfected to express mouse MRGPR A1 were maintained in the same incubator and grown in DMEM media with 10% FBS, 1% each of sodium pyruvate, Glutamax, penicillin/streptomycin, Geneticin, and 2.2 mg/mL Hygromycin.
Cells were plated in a 384-well assay plate at 20,000 cells per well in 12 μL of Opti-MEM and kept in an incubator overnight. On the day of the assay, compounds solubilized at 10 mM in DMSO were added as a 10-point curve (10 uM final top concentration with 1:3 serial dilutions) using a Tecan D300E digital dispenser. […] Final concentrations of DMSO were kept consistent across the plate. Plates were incubated in the dark for 1 h at 37° C. and then for 30 minutes at room temperature. IP-1 standards and HTRF detection reagents were added according to the IP-One—Gq Kit purchased from Cisbio (part number 62IPAPEJ) and incubated in the dark for 1 h at room temperature. The plate was read on a Molecular Devices SpectraMax iD5 plate reader. The HTRF ratio was calculated from the raw data and graphed using GraphPad Prism to calculate an IC50 value for each compound.

[1] = versus 10 μM Bilirubin agonist, HEK cells expressing human MRGPR X4, read-out: MRGPR4 Antagonist Activity

Chain of MRGPRX4 (Q96LA9 whole entry): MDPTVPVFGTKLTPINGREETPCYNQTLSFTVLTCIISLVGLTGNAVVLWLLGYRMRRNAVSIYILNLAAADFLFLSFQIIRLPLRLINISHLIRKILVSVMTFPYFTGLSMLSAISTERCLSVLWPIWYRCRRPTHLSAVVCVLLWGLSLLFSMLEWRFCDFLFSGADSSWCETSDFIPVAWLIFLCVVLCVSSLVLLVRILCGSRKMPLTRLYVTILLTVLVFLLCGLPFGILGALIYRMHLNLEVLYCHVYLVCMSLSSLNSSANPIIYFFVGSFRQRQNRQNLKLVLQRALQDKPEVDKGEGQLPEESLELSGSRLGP

IC50 [1] [nM] | SMILES | further results
1000 to 2500 | COC(=O)c1cccc(COc2ccc(Cl)cc2C(F)(F)F)c1 [Compound 1-1] | –
100 to 500 | COC(=O)c1cccc(COc2ccc(C(F)(F)F)cc2Cl)c1 [Compound 1-2] | –
1000 to 2500 | COC(=O)c1cccc(COc2ccc(C#N)cc2Cl)c1 [Compound 1-3] | –
> 2500 | COC(=O)c1cccc(COc2ccc(Cl)cc2Cl)c1 [Compound 1-4] | –
100 to 500 | COC(=O)c1cccc(COc2cccc(F)c2)c1 [Compound 1-5] | –
1000 to 2500 | COC(=O)c1cccc(COc2ccc(OC(F)(F)F)cc2)c1 [Compound 1-6] | –
1000 to 2500 | COC(=O)c1cccc(COc2ccc(N3CCOCC3)cc2)c1 [Compound 1-7] | –
> 2500 | COC(=O)c1cccc(COc2ccc3scnc3c2)c1 [Compound 1-8] | –
1000 to 2500 | COC(=O)c1cncc(COc2ccc(Cl)cc2Cl)n1 [Compound 1-9] | –
500 to 1000 | COC(=O)c1cccc(COc2ccc(Cl)cc2C(F)(F)F)n1 [Compound 1-10] | –
< 100 | COC(=O)c1cccc(COc2ccc(C(F)(F)F)cc2Cl)n1 [Compound 1-11] | –
< 100 | COC(=O)c1cccc(COc2ccc3ccccc3c2)n1 [Compound 1-12] | –
100 to 500 | COC(=O)c1cccc(COc2ccc(Cl)cc2C)n1 [Compound 1-13] | –
1000 to 2500 | COC(=O)c1ccc(COc2ccc(Cl)cc2Cl)s1 [Compound 1-14] | –
1000 to 2500 | COC(=O)c1cc(COc2ccc(Cl)cc2Cl)on1 [Compound 1-15] | –
< 100 | Cc1cc(C(F)(F)F)ccc1OCc1cccc(C(=O)O)c1 [Compound 1-16, 3-((2-methyl-4-(trifluoromethyl)phenoxy)methyl)benzoic acid] | –
100 to 500 | O=C(O)c1cccc(COc2ccc3ccccc3c2)c1 [Compound 1-17] | –
1000 to 2500 | O=C(O)c1cccc(COc2cc(Cl)ccc2Cl)c1 [Compound 1-19] | –
1000 to 2500 | COc1cc(C(=O)O)ccc1OCc1ccc(Cl)cc1 [Compound 1-20] | –
100 to 500 | O=C(O)c1cccc(COc2ccc(Cl)cc2)c1 [Compound 1-21] | –
> 2500 | O=C(O)c1cccc(COc2ccccc2Cl)c1 [Compound 1-22] | –
500 to 1000 | O=C(O)c1cccc(COc2ccc(Cl)cc2F)c1 [Compound 1-23] | –

IC50 [1] [nM] | SMILES | further results
> 2500 | O=C(O)c1cccc(COc2ccc(F)cc2Cl)c1 [Compound 1-24] | –
> 2500 | O=C(O)c1cccc(COc2c(Cl)cccc2Cl)c1 [Compound 1-25] | –
> 2500 | COc1ccc(C(=O)O)cc1COc1ccc(Cl)cc1Cl [Compound 1-27] | –
100 to 500 | O=C(O)c1cccc(COc2ccc(Cl)cc2C(F)(F)F)c1 [Compound 1-28] | –
< 100 | O=C(O)c1cccc(COc2ccc3ccccc3c2)n1 [Compound 1-30] | –
< 100 | O=C(O)c1cccc(COc2ccc(Cl)cc2C(F)(F)F)n1 [Compound 1-31] | IC50 (read-out: IC50 (10 μM BAR502) nM, MRGPRX4 antagonists versus 10 μM BAR502 agonist): 11 nM; IC50 (versus 10 μM Bilirubin agonist, read-out: IC50 (Bilirubin agonist)): 10 nM; IC50 (versus 20 μM deoxycholic acid, read-out: IC50 (Deoxycholic Acid agonist)): 5 nM; IC50 (versus 20 μM obeticholic acid, read-out: IC50 (Obeticholic Acid Agonist)): 5 nM; IC50 (versus 50 μM urobilin, read-out: IC50 (Urobilin Agonist)): 7 nM; IC50 (versus 100 μM conjugated bilirubin, read-out: IC50 (Conjugated Bilirubin Agonist)): 9 nM
1000 to 2500 | COc1ccc(COc2ccc(Cl)cc2Cl)cc1C(=O)O [Compound 1-32] | –
1000 to 2500 | O=C(O)c1cccc(COc2cccc3c2CCC3)c1 [Compound 1-33] | –
> 2500 | N#Cc1ccc(OCc2cccc(C(=O)O)c2)cc1 [Compound 1-34] | –
100 to 500 | N#Cc1ccc(OCc2cccc(C(=O)O)c2)c(Cl)c1 [Compound 1-35] | –
500 to 1000 | O=C(O)c1cccc(COc2ccc(Cl)cc2)n1 [Compound 1-36] | –
100 to 500 | COc1ccccc1OCc1cccc(C(=O)O)c1 [Compound 1-37] | –
100 to 500 | COc1ccc(OCc2cccc(C(=O)O)c2)cc1 [Compound 1-38] | –
100 to 500 | COc1cccc(OCc2cccc(C(=O)O)c2)c1 [Compound 1-39] | –
1000 to 2500 | O=C(O)c1cccc(COc2ccccc2F)c1 [Compound 1-40] | –
100 to 500 | O=C(O)c1cccc(COc2ccc(C(F)(F)F)cc2)c1 [Compound 1-41] | –
1000 to 2500 | O=C(O)c1cccc(COc2ccc3c(c2)CCC3)c1 [Compound 1-42] | –
500 to 1000 | O=C(O)c1ccc(COc2ccc(Cl)cc2Cl)s1 [Compound 1-43] | –
500 to 1000 | O=C(O)c1cc(COc2ccc(Cl)cc2Cl)ccc1Cl [Compound 1-44] | –
1000 to 2500 | CCOc1ccc(OCc2cccc(C(=O)O)c2)cc1 [Compound 1-45] | –
1000 to 2500 | O=C(O)c1cccc(COc2ccc(C3CC3)cc2)c1 [Compound 1-46] | –
100 to 500 | O=C(O)c1cccc(COc2ccc(OC(F)(F)F)cc2)c1 [Compound 1-47] | –

IC50 [1] [nM] | SMILES | further results
> 2500 | O=C(O)c1cccc(COc2cccc3c2OC(F)(F)O3)c1 [Compound 1-48] | –
500 to 1000 | O=C(O)c1cccc(COc2cccc3ccccc23)c1 [Compound 1-49] | –
1000 to 2500 | Cc1cc(Cl)cc(Cl)c1OCc1cccc(C(=O)O)c1 [Compound 1-50] | –
1000 to 2500 | Cc1cc(-c2ccccc2)ccc1OCc1cccc(C(=O)O)c1 [Compound 1-51] | –
> 2500 | O=C(O)c1cccc(COc2ccc(Oc3ccccc3)cc2)c1 [Compound 1-52] | –
500 to 1000 | Cc1cc(OCc2cccc(C(=O)O)c2)cc(C)c1Cl [Compound 1-53] | –
> 2500 | CC(=O)c1ccc(OCc2cccc(C(=O)O)c2)cc1 [Compound 1-54] | –
100 to 500 | Cc1cc(Cl)ccc1OCc1cccc(C(=O)O)n1 [Compound 1-57] | –
< 100 | O=C(O)c1cccc(COc2ccc3ccccc3c2)c1F [Compound 1-58] | –
< 100 | O=C(O)c1cccc(COc2ccc(Cl)c(F)c2)c1 [Compound 1-59] | –
500 to 1000 | Cc1ccc(OCc2cccc(C(=O)O)c2)c(C)c1F [Compound 1-60] | –
500 to 1000 | O=C(O)c1cccc(COc2ccc3c(c2)OC(F)(F)O3)c1 [Compound 1-61] | –
< 100 | O=C(O)c1cccc(COc2ccc(Cl)cc2C(F)(F)F)c1F [Compound 1-62] | –
< 100 | Cc1cc(Cl)ccc1OCc1cccc(C(=O)O)c1F [Compound 1-63] | –
< 100 | O=C(O)c1cccc(COc2ccc(C(F)(F)F)cc2F)c1 [Compound 1-64] | –
500 to 1000 | COc1cc(OCc2cccc(C(=O)O)c2)ccc1C(F)(F)F [Compound 1-67] | –
100 to 500 | N#Cc1ccc(OCc2cccc(C(=O)O)c2)c(C(F)(F)F)c1 [Compound 1-68] | –
500 to 1000 | O=C(O)c1cccc(COc2cccc(-c3ccc(F)cc3)c2)c1 [Compound 1-69] | –
1000 to 2500 | N#Cc1cc(OCc2cccc(C(=O)O)c2)ccc1Cl [Compound 1-70] | –
500 to 1000 | Cc1cc(F)c(F)cc1OCc1cccc(C(=O)O)c1 [Compound 1-71] | –
500 to 1000 | Cc1cc(OCc2cccc(C(=O)O)c2)ccc1Cl [Compound 1-72] | –
< 100 | O=C(O)c1cccc(COc2ccc(C(F)(F)F)cc2C(F)(F)F)c1 [Compound 1-73] | –

IC50 [1] [nM] | SMILES | further results
> 2500 | O=C(O)c1cccc(COc2ccc3c(c2)CCC3=O)c1 [Compound 1-74] | –
1000 to 2500 | O=C(O)c1cccc(COc2cccc(Cl)c2F)c1 [Compound 1-75] | –
100 to 500 | N#Cc1c(Cl)cccc1OCc1cccc(C(=O)O)c1 [Compound 1-76] | –
1000 to 2500 | Cc1ccc(OCc2cccc(C(=O)O)c2)c(F)c1 [Compound 1-77] | –
100 to 500 | O=C(O)c1cccc(COc2cccc(C(F)(F)F)c2Cl)c1 [Compound 1-79] | –
100 to 500 | O=C(O)c1cccc(COc2ccc(-n3cccc3)cc2)c1 [Compound 1-80] | –
> 2500 | O=C(O)c1cccc(COc2ccc(-c3ccccc3)cc2)c1 [Compound 1-81] | –
< 100 | O=C(O)c1cc(Cl)cc(COc2ccc(C(F)(F)F)cc2Cl)c1 [Compound 1-82] | –
100 to 500 | O=C(O)c1cc(COc2ccc(C(F)(F)F)cc2Cl)ccc1Cl [Compound 1-83] | –
1000 to 2500 | CCOc1ccccc1OCc1cccc(C(=O)O)c1 [Compound 1-84] | –
500 to 1000 | CC(C)c1ccc(OCc2cccc(C(=O)O)c2)cc1 [Compound 1-86] | –
1000 to 2500 | O=C(O)c1cccc(COc2cccc3c2CCCC3=O)c1 [Compound 1-87] | –
1000 to 2500 | Cc1ccc(C(C)(C)C)c(OCc2cccc(C(=O)O)c2)c1 [Compound 1-88] | –
100 to 500 | Cc1ccc(OCc2cccc(C(=O)O)c2)cc1F [Compound 1-89] | –
500 to 1000 | O=C(O)c1cccc(COc2ccc(F)cc2C(F)(F)F)c1 [Compound 1-91] | –
1000 to 2500 | COc1ccc(OCc2cccc(C(=O)O)c2)c(Cl)c1 [Compound 1-92] | –
1000 to 2500 | Cc1cc(F)ccc1OCc1cccc(C(=O)O)c1 [Compound 1-94] | –
100 to 500 | Cc1c(Cl)cccc1OCc1cccc(C(=O)O)c1 [Compound 1-95] | –
500 to 1000 | COc1ccc(OCc2cccc(C(=O)O)c2)c(F)c1F [Compound 1-96] | –

SMILES | IC50 [1] [nM] | further results
N#Cc1ccc(OCc2cccc(C(=O)O)c2)cc1Cl [Compound 1-90] | 100 to 500 | –
